# Results reported in patent US20260265235A1, “BICYCLOAMINE CARBOXAMIDE DERIVATIVE” (Sumitomo Pharma Co., Ltd., priority 2022, published 2026).
# Molecular target: T1, Human orexin receptor type 2 (Homo sapiens, UniProt O43614)
# T1 construct: expressed in transfected cells; host or cells: CHO cells (transient expression, with apoaequorin)
# T1 sequence (O43614 1-444): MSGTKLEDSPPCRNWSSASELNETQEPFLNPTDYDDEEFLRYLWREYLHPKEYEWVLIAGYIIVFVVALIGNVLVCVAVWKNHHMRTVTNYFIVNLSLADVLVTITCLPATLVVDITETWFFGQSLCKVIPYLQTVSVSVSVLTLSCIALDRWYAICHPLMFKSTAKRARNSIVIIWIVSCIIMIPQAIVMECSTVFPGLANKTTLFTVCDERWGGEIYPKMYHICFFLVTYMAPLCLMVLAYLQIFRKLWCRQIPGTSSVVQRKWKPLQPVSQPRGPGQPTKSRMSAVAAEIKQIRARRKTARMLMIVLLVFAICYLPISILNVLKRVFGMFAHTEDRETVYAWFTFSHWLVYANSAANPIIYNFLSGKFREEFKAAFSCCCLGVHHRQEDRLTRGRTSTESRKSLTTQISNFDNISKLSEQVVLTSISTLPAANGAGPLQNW
# Assay: Test Example 1: agonist activity for orexin receptor type 2 (aequorin luminescence, intracellular calcium mobilization in CHO cells)
# Format: cell-based
# Conditions: compound 10 μM; relative percentage of luminescence for the luminescence (100%) of Orexin A (100 μM); CHO cells transiently expressing human orexin receptor type 2 and apoaequorin
# Procedure: Test Example 1: Measurement of Agonist Activity for Orexin Receptor Type 2
# (§1) Human orexin receptor type 2 and apoaequorin were transiently expressed in CHO cells, and the agonist activity was evaluated based on intracellular calcium mobilization with ligand stimulation. The CHO cells transiently-expressed human orexin receptor type 2 and apoaequorin were seeded on a 384-well plate by 2,000 cells/well, and then incubated for 16-22 hours. After the plate was returned to room temperature, Coelenterazine hcp (final concentration: 1 μM) was added to the plate, and the plate was allowed to stand at room temperature for 2 hours. And then, Orexin A or each test compound was added to the plate, and the luminescence of the cells was measured with FDSS7000 (Hamamatsu Photonics K.K.), wherein Orexin A and each test compound were dissolved in DMSO (final concentration: 0.1%), and diluted with a buffer (Hanks, 20 mM HEPES, 0.1% BSA). The agonist activity of each test compound for orexin receptor type 2 was calculated as relative percentage of luminescence for the luminescence (100%) of Orexin A (100 μM).
# (§2) Each agonist activity of the compounds obtained in Examples (10 μM) for orexin receptor type 2 is shown in the table below as relative percentage of luminescence for the luminescence (100%) of Orexin A (100 μM).
row,SMILES,Agonist Activity (%)
1,"CC(C)N1CCN([C@H]2CCCC(F)(F)[C@@H]2NC(=O)N2C[C@H]3C[C@@H](c4cccc(F)c4)C[C@H]3C2)CC1 [Example 16, (3aR,5R,6aS)—N-{(1R,6S)-2,2-difluoro-6-[4-(propan-2-yl)piperazin-1-yl]cyclohexyl}-5-(3-fluorophenyl)hexahydropenta[c]pyrrole-2(1H)-carboxamide]",491%
2,"CC(C)N1CCN([C@H]2CCCC(F)(F)[C@@H]2NC(=O)N2C[C@@H]3CN(c4ccccc4)C[C@@H]3C2)CC1 [Example 11, (3aR,6aS)—N-{(1R,6S)-2,2-difluoro-6-[4-(propan-2-yl)piperazin-1-yl]cyclohexyl}-5-phenylhexahydropyrrolo[3,4-c]pyrrole-2(1H)-carboxamide]",477%
3,"CC(C)N1CCN([C@H]2CCCC(F)(F)[C@@H]2NC(=O)N2C[C@H]3C[C@@H](c4noc(C5CC5)n4)C[C@H]3C2)CC1 [Example 8, (3aR,5R,6aS)-5-(5-cyclopropyl-1,2,4-oxadiazol-3-yl)-N-{(1R,6S)-2,2-difluoro-6-[4-(propan-2-yl)piperazin-1-yl]cyclohexyl}hexahydropenta[c]pyrrole-2(1H)-carboxamide]",423%
4,"CC(C)N1CCN([C@H]2CCCC(F)(F)[C@@H]2NC(=O)N2C[C@H]3C[C@@H](c4ccc(F)cc4)C[C@H]3C2)CC1 [Example 15, (3aR,5R,6aS)—N-{(1R,6S)-2,2-difluoro-6-[4-(propan-2-yl)piperazin-1-yl]cyclohexyl}-5-(4-fluorophenyl)hexahydropenta[c]pyrrole-2(1H)-carboxamide]",511%
5,CC(C)N1CCN([C@H]2CCCC(F)(F)[C@@H]2NC(=O)N2CC[C@H]3C[C@H](c4noc(C5CC5)n4)[C@H]3C2)CC1 [Example 5],79%
6,"CC(C)N1CCN([C@H]2CCCC(F)(F)[C@@H]2NC(=O)N2C[C@H]3C[C@@H](c4ccccc4)C[C@H]3C2)CC1 [Example 9, (3aR,5R,6aS)—N-{(1R,6S)-2,2-difluoro-6-[4-(propan-2-yl)piperazin-1-yl]cyclohexyl}-5-phenylhexahydropenta[c]pyrrole-2(1H)-carboxamide]",424%
7,"CC(C)N1CCN([C@H]2CCCC(F)(F)[C@@H]2NC(=O)N2C[C@@H]3C[C@](C)(c4noc([C@@H]5C[C@@H]5F)n4)C[C@@H]3C2)CC1 [Example 7, (3aR,5R,6aS)—N-{(1R,6S)-2,2-difluoro-6-[4-(propan-2-yl)piperazin-1-yl]cyclohexyl}-5-{5-[(1S,2S)-2-fluorocyclopropyl]-1,2,4-oxadiazol-3-yl}-5-methylhexahydropenta[c]pyrrole-2(1H)-carboxamide]",328%
8,"Cc1ccccc1[C@@H]1C[C@@H]2CN(C(=O)N[C@@H]3[C@@H](N4CCN(C(C)C)CC4)CCCC3(F)F)C[C@@H]2C1 [Example 14, (3aR,5R,6aS)—N-{(1R,6S)-2,2-difluoro-6-[4-(propan-2-yl)piperazin-1-yl]cyclohexyl}-5-(2-methylphenyl)hexahydropenta[c]pyrrole-2(1H)-carboxamide]",446%
9,CC(C)N1CCN([C@H]2CCCC(F)(F)[C@@H]2NC(=O)N2C[C@H]3CC(c4ccccc4)=C[C@H]3C2)CC1 [Example 10],450%
10,"CC(C)N1CCN([C@H]2CCCC(F)(F)[C@@H]2NC(=O)N2C[C@H]3CC(c4ccccc4)C[C@H]3C2)CC1 (stereo partly drawn) [Example 12, (3aR,5S,6aS)—N-{(1R,6S)-2,2-difluoro-6-[4-(propan-2-yl)piperazin-1-yl]cyclohexyl}-5-phenylhexahydropenta[c]pyrrole-2(1H)-carboxamide]",492%
11,"CC(C)N1CCN([C@H]2CCCC(F)(F)[C@@H]2NC(=O)N2C[C@@H]3C[C@](C)(c4noc(C5CC5)n4)C[C@@H]3C2)CC1 [Example 6, (3aR,5R,6aS)-5-(5-cyclopropyl-1,2,4-oxadiazol-3-yl)-N-{(1R,6S)-2,2-difluoro-6-[4-(propan-2-yl)piperazin-1-yl]cyclohexyl}-5-methylhexahydropenta[c]pyrrole-2(1H)-carboxamide]",282%
12,"CC(C)N1CCN([C@H]2CCCC(F)(F)[C@@H]2NC(=O)N2C[C@@H]3[C@H](C2)[C@H]3c2noc(C3CC3)n2)CC1 [Example 3, (1R,5S,6R)-6-(5-cyclopropyl-1,2,4-oxadiazol-3-yl)-N-{(1R,6S)-2,2-difluoro-6-[4-(propan-2-yl)piperazin-1-yl]cyclohexyl}-3-azabicyclo[3.1.0]hexane-3-carboxamide]",217%
13,"CC(C)N1CCN([C@H]2CCCC(F)(F)[C@@H]2NC(=O)N2C[C@@H]3[C@H](C2)[C@@H]3c2noc(C3CC3)n2)CC1 [Example 4, (1R,5S,6S)-6-(5-cyclopropyl-1,2,4-oxadiazol-3-yl)-N-{(1R,6S)-2,2-difluoro-6-[4-(propan-2-yl)piperazin-1-yl]cyclohexyl}-3-azabicyclo[3.1.0]hexane-3-carboxamide]",15%
14,"CC(C)N1CCN([C@H]2CCCC(F)(F)[C@@H]2NC(=O)N2C[C@H]3C[C@H](c4noc(C5CC5)n4)C[C@H]3C2)CC1 [Example 1, (3aR,5S,6aS)-5-(5-Cyclopropyl-1,2,4-oxadiazol-3-yl)-N-{(1R,6S)-2,2-difluoro-6-[4-(propan-2-yl)piperazin-1-yl]cyclohexyl}hexahydropenta[c]pyrrole-2(1H)-carboxamide]",375%
15,"CC(C)N1CCN([C@H]2CCCC(F)(F)[C@@H]2NC(=O)N2C[C@H]3C[C@H](c4noc([C@@H]5C[C@@H]5F)n4)C[C@H]3C2)CC1 [Example 2, (3aR,5S,6aS)—N-{(1R,6S)-2,2-difluoro-6-[4-(propan-2-yl)piperazin-1-yl]cyclohexyl}-5-{5-[(1S,2S)-2-fluorocyclopropyl]-1,2,4-oxadiazol-3-yl}hexahydropenta[c]pyrrole-2(1H)-carboxamide]",275%
16,"CC(C)N1CCN([C@H]2CCCC(F)(F)[C@@H]2NC(=O)N2C[C@H]3C[C@@H](c4ccccc4F)C[C@H]3C2)CC1 [Example 17, (3aR,5R,6aS)—N-{(1R,6S)-2,2-difluoro-6-[4-(propan-2-yl)piperazin-1-yl]cyclohexyl}-5-(2-fluorophenyl)hexahydropenta[c]pyrrole-2(1H)-carboxamide]",315%
17,"Cc1ccc([C@@H]2C[C@@H]3CN(C(=O)N[C@@H]4[C@@H](N5CCN(C(C)C)CC5)CCCC4(F)F)C[C@@H]3C2)cc1 [Example 13, (3aR,5R,6aS)—N-{(1R,6S)-2,2-difluoro-6-[4-(propan-2-yl)piperazin-1-yl]cyclohexyl}-5-(4-methylphenyl)hexahydropenta[c]pyrrole-2(1H)-carboxamide]",466%

# Molecular target: T1, Human orexin receptor type 2
# Assay: Test Example 2: agonist activity for orexin receptor type 2 (aequorin luminescence, intracellular calcium mobilization in CHO cells)
# Format: cell-based
# Conditions: compound 10 μM; relative percentage of luminescence for the luminescence (100%) of Orexin A (100 μM); CHO cells transiently expressing human orexin receptor type 2 and apoaequorin
# Procedure: Test Example 2: Measurement of Agonist Activity for Orexin Receptor Type 2
# as §1, with “Orexin A (PEPTIDE INSTITUTE, INC., Lot. 711101) or each” for “Orexin A or each”
# as §2
row,SMILES,Agonist Activity (%)
1,"CC(C)N1CC[C@H](O[C@H]2CCCC(F)(F)[C@@H]2NC(=O)N2C[C@H]3CC(c4ccccc4)C[C@H]3C2)C1 (stereo partly drawn) [Example 28, (3aR,5R,6aS)—N-[(1R,6S)-2,2-difluoro-6-{[(3S)-1-(propan-2-yl)pyrrolidin-3-yl]oxy}cyclohexyl]-5-phenylhexahydropenta[c]pyrrole-2(1H)-carboxamide]",400%
2,"Cc1nc(C2C[C@@H]3CN(C(=O)N[C@@H]4[C@@H](N(C)[C@H]5CCN(C(C)C)C5)CCCC4(F)F)C[C@@H]3C2)no1 (stereo partly drawn) [Example 31, (3aR,5R,6aS)—N-[(1R,6S)-2,2-difluoro-6-{methyl[(3S)-1-(propan-2-yl)pyrrolidin-3-yl]amino}cyclohexyl]-5-(5-methyl-1,2,4-oxadiazol-3-yl)hexahydropenta[c]pyrrole-2(1H)-carboxamide]",252%
